Values of other authors in patent US20210315248A1, “SYSTEM AND METHOD FOR HOVENIA DULCIS EXTRACTION” (82 Labs Inc., priority 2020, published 2021).

How the values were obtained:
[1] = set-up: key: ability to form inclusion complexes, as indicated by a “+”; conditions: guest molecule with γ-cyclodextrin
[2] = set-up: key: ability to form inclusion complexes, as indicated by a “+”; conditions: guest molecule with α-cyclodextrin
[3] = set-up: key: ability to form inclusion complexes, as indicated by a “+”; conditions: guest molecule with β-cyclodextrin
[4] = not given; remark: listed apart in the source

| SMILES | ability to form inclusion complexes with γ-CD [1] | ability to form inclusion complexes with α-CD [2] | ability to form inclusion complexes with β-CD [3] | further results |
| --- | --- | --- | --- | --- |
| c1ccc2cc3ccccc3cc2c1 [Anthracene] | + | – | – | – |
| CCCC(=O)O [Butyric acid] | – | + | + | – |
| C1CCCCC1 [Cyclohexane] | + | + | + | – |
| O=C1c2c(O)cc(O)cc2O[C@H](c2cc(O)c(O)c(O)c2)[C@H]1O [DHM, (2R,3R)-3,5,7-trihydroxy-2-(3,4,5-trihydroxyphenyl)-2,3-dihydrochromen-4-one] | – | – | – | permeability Peff: (1.84±0.37)×10^−6 cm/s |
| c1ccc2ccccc2c1 [Naphthalene] | + | – | + | – |
| CCC(=O)O [Propionic acid] | – | + | – | – |
| [Xe] [Xenon] | – | + | – | – |
| OC[C@H]1O[C@@H]2O[C@H]3[C@H](O)[C@@H](O)[C@@H](O[C@H]4[C@H](O)[C@@H](O)[C@@H](O[C@H]5[C@H](O)[C@@H](O)[C@@H](O[C@H]6[C@H](O)[C@@H](O)[C@@H](O[C@H]7[C@H](O)[C@@H](O)[C@@H](O[C@H]1[C@H](O)[C@H]2O)O[C@@H]7CO)O[C@@H]6CO)O[C@@H]5CO)O[C@@H]4CO)O[C@@H]3CO [α-Cyclodextrin, α-cyclodextrin] | – | – | – | pKa value (25° C.) [4]: 12.331 |
